Laboratory results: patent US12364764B2, “Sustained release thermosetting gels comprising sodium channel blockers and the methods of making same” (Pacira Therapeutics, Inc., priority 2019, dated 2025)

Assay: Measured drug load / API content of funapide gel formulations
Format: physicochemical

O=C1N(Cc2ccc(C(F)(F)F)o2)c2ccccc2[C@]12COc1cc3c(cc12)OCO3 [funapide]
drug concentration that can be loaded within the thermosensitive hydrogel formulation: up to 20 mg/mL
